{"source": "BindingDB's records for patent US20260014133", "about": "(St. Jude''s Chidren''s Research Hospital, Inc., 2026)", "target": "DNA damage-binding protein 1/Protein cereblon (Homo sapiens, UniProt Q96SW2)", "assay": "CRBN Fluorescence Polarization Assay", "procedure": "In this competitive fluorescent polarization assay Cy5 conjugated lenalidomide analog (Cy5-O-Len)13 was used as a fluorescent probe. 6×His-CRBN-DDB1 protein (200 nM) and Cy5-O-Len probe (30 nM) were combined in 20 mM HEPES pH 7, 150 mM NaCl, 0.005% Tween-20 assay buffer. 20 μL of this assay cocktail was dispensed into wells of Corning 3821 black 384-well plates. Compounds were transferred to the assay plate from a dose-response plate using a Pintool on a Biomek FXP Laboratory Automation Workstation (Beckman Coulter). The plates were incubated in the dark for 1 hour at room temperature and then read on an Envision plate reader (PerkinElmer, Massachusetts, USA). IC50 values were determined using a proprietary software RISE (Robust Investigation of Screening Experiments), developed in house on the Pipeline Pilot platform (Biovia, v. 17.2.0). Data represent the mean of three independent determinations."}
{"smiles": "O=C1CCC(N2Cc3cc(NC(=O)Cc4ccccn4)ccc3C2=O)C(=O)N1", "note": "(stereo unspecified) [US20260014133, Compound 28]", "values": [{"measurement": "IC50", "result": "< 1", "unit": "µM"}]}
